Test results as given in US20160160267A1, “COMPOSITION FOR EVALUATING OR PREDICTING PATIENTS THERAPEUTIC RESPONSE TO METHORMIN” (SNU R&DB FOUNDATION, priority 2013, published 2016).

Key:
MUC2 = assay: Expression of mucin gene MUC2 in small intestine; assay type: in vivo, mouse (C57BL/6); settings: female, after administration of metformin
Method: (§1) FIG. 4a to FIG. 5b comparatively analyze the amount of gene expression of internal control GAPDH and biomarkers using relative quantification method (2^−ΔΔCt(ΔΔCt=(Ct.Target−Ct.GAPDH)Group1−(Ct.Target−Ct.GAPDH)Group2)). Statistical significance is assessed by Mann-Whitney U Test. For quantification, SYBR qPCR was repeatedly conduced three times.
(§2) Basically, body weight and fasting glucose were confirmed once a week. To confirm impaired glucose tolerance, oral glucose tolerance test (OGTT) was conducted. And, total cholesterol, high-density lipoprotein (HDL), low-density lipoprotein (LDL) were analyzed in serum, and insulin concentration in blood was measured using flow cytometry. To grasp the expression degree of metabolic and inflammatory factors, liver, epididymal adipose tissue, small intestine were homogenized to extract total RNA, which was quantitatively analyzed by polymerase chain reaction (PCR). In the liver, AMPKα1 (AMP-activated protein kinase alpha 1), PPARα (Peroxisome proliferator-activated eceptor alpha), GLUT2 (Glucose transporter 2), G6Pase (Glucose 6-phosphatase) were measured; in the adipose tissue, adiponectin, leptin, MCP-1 (Monocyte chemoattractant protein-1), TNFα (Tumor necrosis factor alpha) IL-6 (Interleukin-6) were measured; and in the small intestine, MUC2 and MUC5 (Mucin genes) were measured. […]

[1] = test system: GLUT2 (Glucose transporter 2); assay: Expression of GLUT2 in liver, quantitative PCR relative to GAPDH; assay type: in vivo, mouse (C57BL/6); settings: female, metformin during high-fat diet, P=0.007
Method: as §1, §2

PPARα = assay: Expression of PPARα in liver, quantitative PCR relative to GAPDH; assay type: in vivo, mouse (C57BL/6); settings: female, metformin during high-fat diet, P=0.008
Method: as §1, §2

[2] = test system: rumen microorganism communities; assay: Analysis of rumen microbiome in feces samples (16S rRNA V2-V3 pyrosequencing, UniFrac, PCoA, LEfSe); assay type: in vivo, mouse (C57BL/6)
Method: Total genome DNA of bacteria in the feces sample was extracted using a kit. The V2 region and the V3 region of 16S rRNA gene were amplified through PCR using bar coded universal primer as described in Table 3 and Table 4, and pyrosequencing was conducted using GS-FLX system. For the secured nucleotide sequence, data was analyzed using QIIME (Quantitative Insights Into Microbial Ecology) 1.5.0 (http://qiime.sourceforge.net). Before the sequence analysis, noise removal of the sequence data set was conducted, and low quality sequence less than 200 bp was removed. To the nucleotide sequence, OUT (Operational taxonomic units) was assigned based on 97% analogous level to conduct system analysis. For the nucleotide sequence obtained from each feces sample, UniFrac, PCoA (Principal Coordinate Analysis), LEfSe (LDA Effect Size) analysis were conducted for comparative analysis. And, based on the KEGG (Kyoto Encyclopedia of Genes and Genomes) pathway data from microbiome, PICRUSt (Phylogenetic Investigation of Communities by Reconstruction of Unobserved States) was conducted to predict a specifically increasing metabolic pathway.

[3] = test system: MCP-1 (Monocyte chemoattractant protein-1); assay: Expression of MCP-1 in epididymal adipose tissue, quantitative PCR relative to GAPDH; assay type: in vivo, mouse (C57BL/6); settings: male, metformin during high-fat diet, P=0.008
Method: as §1, §2

[4] = test system: G6Pase (Glucose 6-phosphatase); assay: Expression of G6Pase in liver, quantitative PCR relative to GAPDH; assay type: in vivo, mouse (C57BL/6); settings: male, metformin during high-fat diet
Method: as §1, §2

[5] = Tissue inspection (tissue weights, H&E staining, steatosis); settings: metformin during high-fat diet, compared to high-fat diet group
Source text: Male and female C57BL/6 species of the same age of the week were purchased from Orientbio. […] Epididymis adipose tissue, liver, small intestine, pancreas, and blood were extracted, and among them, liver, small intestine, and pancreas were fixed to 4% paraformaldehyde to conduct hematoxylin and eosin (H&E) staining. Briefly, tissue was cut to 4 μm, stained with alum haematoxylin and rinsed with water flow. Thereafter, the colour was changed with 0.3% acid alcohol, followed by additional staining with eosin, dehydrating and fixing. The degree of steatosis and inflammation of the tissue was read by pathologist.

MUC5 = assay: Expression of mucin gene MUC5 in small intestine; assay type: in vivo, mouse (C57BL/6); settings: female, after administration of metformin
Method: as §1, §2

leptin = assay: Expression of leptin in epididymal adipose tissue, quantitative PCR relative to GAPDH; assay type: in vivo, mouse (C57BL/6); settings: male, metformin during high-fat diet, P=0.004
Method: as §1, §2

[6] = test system: AMPKα1 (AMP-activated protein kinase alpha 1); assay: Expression of AMPKα1 in liver, quantitative PCR relative to GAPDH; assay type: in vivo, mouse (C57BL/6); settings: female, metformin during high-fat diet, P=0.023
Method: as §1, §2

[7] = Metabolism-related index (body weight, fasting glucose, serum total cholesterol, HDL) in high-fat diet mouse; assay type: in vivo, mouse (C57BL/6); settings: high-fat diet mice
Method: Basically, body weight and fasting glucose were confirmed once a week. To confirm impaired glucose tolerance, oral glucose tolerance test (OGTT) was conducted. And, total cholesterol, high-density lipoprotein (HDL), low-density lipoprotein (LDL) were analyzed in serum, and insulin concentration in blood was measured using flow cytometry. To grasp the expression degree of metabolic and inflammatory factors, liver, epididymal adipose tissue, small intestine were homogenized to extract total RNA, which was quantitatively analyzed by polymerase chain reaction (PCR). In the liver, AMPKα1 (AMP-activated protein kinase alpha 1), PPARα (Peroxisome proliferator-activated eceptor alpha), GLUT2 (Glucose transporter 2), G6Pase (Glucose 6-phosphatase) were measured; in the adipose tissue, adiponectin, leptin, MCP-1 (Monocyte chemoattractant protein-1), TNFα (Tumor necrosis factor alpha) IL-6 (Interleukin-6) were measured; and in the small intestine, MUC2 and MUC5 (Mucin genes) were measured. For comparative analysis of the expression degree, relative quantification using housekeeping gene GAPDH was applied, and statistical significance was confirmed with Mann-Whitney U test. As the primer for MUC5AC, QuantiTect® Primer Assay (Cat. no.: QT01161104, Qiagen) was used.

[8] = test system: TNFα (Tumor necrosis factor alpha); assay: Expression of TNFα in epididymal adipose tissue, quantitative PCR relative to GAPDH; assay type: in vivo, mouse (C57BL/6); settings: female, metformin during high-fat diet, P=0.001
Method: as §1, §2

[9] = after administration of metformin during high-fat diet
[10] = 10 weeks after metformin administration
[11] = after administration of metformin (300 mg/kg daily, oral)

## CN(C)C(=N)NC(=N)N [metformin, N,N-Dimethylimidodicarbonimidic diamide]
MUC2
  expression degree of MUC2 in small intestine: significantly increased
[1]
  GLUT2 expression in liver: decreased
PPARα
  PPARα expression in liver: increased
[2]; [9]
  proportion of phylum Proteobacteria: 2.1±2.8%
  proportion of phylum Verrucomicrobia: 12.4±5.3%
[2]; high-fat diet, after administration of metformin
  proportion of phylum Bacteroidetes: 77.5±8.7%
[2]; metformin administration during high-fat diet
  microbial diversity in feces: decreased
[2]; metformin administration during normal diet
  microbial diversity in feces: did not cause any change in diversity
[2]; metformin during high-fat diet
  Akkermansia abundance, at species level: significantly increased
  Bacteroides abundance, at species level: significantly increased
  relative bacterial abundance by LDA scores, genus Akkermansia: increased
  relative bacterial abundance by LDA scores, genus Blautia: increased
  relative bacterial abundance by LDA scores, genus Clostridium: decreased
  relative bacterial abundance by LDA scores, genus Shigella: increased
[2]; metformin during high-fat diet, versus difference of the diet-change group (HFD-ND) to HFD only
  UniFrac distance to the group treated with high-fat diet only: larger
[2]; metformin during normal diet
  relative bacterial abundance, Alistipes: increased
  relative bacterial abundance, Lactobacillus iners: relatively decreased
  relative bacterial abundance, genus Akkermansia: significantly increased
  relative bacterial abundance, genus Clostridium: significantly increased
[3]
  MCP-1 expression in epididymal adipose tissue: increased
[4]
  G6Pase expression in liver: significantly decreased
[5]
  liver steatosis: significant difference
  weight of adipose tissue: significantly decreased
  weight of liver: significantly decreased
MUC5
  expression degree of MUC5 in small intestine: significantly increased
leptin
  leptin expression in epididymal adipose tissue: increased
[6]
  AMPKα expression in liver: decreased
[7]; [10]
  high density lipoprotein (HDL): significantly decreased
  total cholesterol: significantly decreased
[7]; [11]
  blood glucose (fasting glucose): significantly decrease
  body weight: significantly decrease
[8]
  TNFα expression in epididymal adipose tissue: significantly decreased
